Experiments:
[1] = test system: sAPPα released from 7WD10 cells (CHO cells stably expressing APP751); experiment: AlphaLISA sAPPα release assay (pilot HTS); type: cell-based; conditions: 5 μM, 7WD10 cells, 24 h
Procedure: (1). The pilot screen was performed using five 384 well plates. […] FDA approved oncology set was screened at 10 μM final assay concentration, while thiazole derivatives were screened at 5 μM. Seven hits from thiazole derivatives were identified using Ave+3SD rule (45) as a nominal cutoff for hit determination (FIG. 1.1 (bottom)). The hits represented a novel piperazine thiazole chemotype (FIG. 1.2).
Pilot screen of AlphaLISA sAPPα release assay. 8 μL of assay media (DMEM supplemented with 10% FBS and 1× Penicillin/Streptomycin) containing 20,000 cells were added to all wells of the assay plate, except column 1 where only media was added. Plates were incubated for 4 h at 37° C., 5% CO2, 95% RH after which 80 nL of test compounds in DMSO or DMSO alone were added to respective wells using a pin tool device (VP Scientific, San Diego). After 24 h of incubation at 37° C., 5% CO2, 95% RH, sAPPα AlphaLISA beads were added in 10 μL of buffer, equilibrated for 1 h, and AlphaLISA signal was measured using a Biotek H4 Synergy microplate reader (Biotek Inc). Three parameters were calculated on a per-plate basis: (a) the signal-to-background ratio (S/B); (b) the coefficient for variation [CV; CV=(standard deviation/mean)×100)] for all compound test wells; and (c) the Z′-factor [31]. Nominally active compounds from the pilot screen were determined using mean plus 3 times the standard deviation (Mean+3SD) was used as the cut-off.
In the absence of known pharmacological agents capable of inducing an increase of sAPPα release, we tested a small molecule (FIG. 2.4A insert, compound 1 in [2]) shown to decrease Aβ release. It was shown that decrease of Aβ release could be accompanied by the increase of soluble APPα, which has a neuroprotective effect. Compound 1 was tested using 20,000 cells/well in the range of 1.2-100 μM using 3-fold serial dilutions and 24 h incubation as an assay endpoint. Increase of sAPPα release was observed only in wells where 100 μM of compound 1 was added either with or without FBS (FIG. 2.4A). Viability of cells was also tested in the presence of 1.2-100 μM of compound 1 to ascertain that the increase of sAPPα release is not due to excessive cell death. Consistent with the above described results, cells were less viable in the absence of FBS. In the presence of 1.2-33 μM of compound 1, cells were approximately 10% less viable than untreated control either with or without FBS (FIG. 2.4B).
To evaluate the ability of the assay to identify compounds that increase the release of sAPPα a pilot screen was conducted using FDA approved oncology set (n=101) and TPIMS heterocycles library (n=700). The pilot screen was performed using five 384 well plates. […]

[2] = Brain levels of compound after i.p. injection (BBB passage), LC-MS; type: in vivo, mouse
Procedure: (3). Since blood brain barrier (BBB) is the main obstacle for drug development for any CNS disorders, we first wanted to verify whether compound THPI-244 enters the brain. We followed protocols exactly as published previously from our laboratory (Hayes, C D et al., 2013, BMC Med. 26, 11.81). […] We generated a standard graph (FIG. 1.4 (middle)) to be used in the quantitation of THPI-244 in the brain after intraperitoneal (i.p.) injections at 0.2 mg/kg body weight.

[3] = test system: human primary neurons; experiment: MTT cytotoxicity assay, human primary neurons; type: cell-based; conditions: 24 h exposure
Excerpt: (4). Toxicity is another crucial limitation for successful drug development as evidenced by recent failure of γ-secretase inhibitors at the clinical trials due to cytotoxicity (Cole, S L and Vassar, R, 2007, Mol. Neurodeg. 2, 22-47; Doody R S, et al. 2013. N. Eng. J. Med. 369, 341-350). Therefore we measured cytotoxicity by very sensitive MTT assay as described previously (Hayes, C D., et al. 2013, BMC Medicine. 26, 11.81; 23; Hayes, C D., et al., 2012, PLoS One 7, e45841) in human primary neurons obtained from a commercial source (cat #1520, ScienCell, Carlsbad, Calif., USA) and fibroblasts derived directly from AD patients (cat #AG06263C, Coriell Institute Cell repository supported by NINDS, NIH). […] We directly used human neurons for toxicity studies so as to reduce the chances of future failure at a later stage due to toxicity.

[4] = test system: human primary neurons; experiment: Neurite outgrowth, Sholl analysis of dendritic intersections; type: cell-based
Excerpt: (4). The most important property of THPI-244 is its ability to increase neurite outgrowth and dendritic intersections in human primary neurons. Since both TrkA and sAPPα promote neuron growth and provide trophic support, we tested whether treatment of human primary neurons with THPI-244 induces neurite outgrowth. […] Considering an enormous potential for such an excellent results in human neurons, we did systematic analysis by also treating neurons in the presence of TrkA inhibitor to verify if the increased neurite outgrowth is mediated by TrkA receptor. Sholl analysis using ImageJ software of individual neurons (at least 30 per group) immunostained for MAP2 antibody confirmed our initial findings. […] This confirmed that THPI-244 increases TrkA protein levels which has vital role in regulating neuritic outgrowth.

[5] = test system: Wild-type (WT) C57BL/6 mice; experiment: Lethal dose (LD50) study in mice; type: in vivo, mouse
Excerpt: Wild-type (WT) C57BL/6 mice aged about 6 months were used in the study. The compound THPI-244 was initially dissolved in 100% DMSO and then diluted to final 10% DMSO with phosphate buffered saline (PBS). […] Among these 6 mice, 3 mice received repeated injections (i.p) of compound THPI-244 for 5 days.

Question: With `O=C(Cc1ccccc1)N[C@H](CNc1nc(CN2CCN(C(=O)Cc3ccccc3)CC2)cs1)c1ccccc1` [THPI-244] as the compound, how does the “increase of Alpha signal (sAPPα release)” value [1] read?
Answer: ~2 fold

Question: And the “time to maximum level in brain” value ([2]; 0.2 mg/kg i.p., mouse)?
Answer: ≤ 5 min

Question: What about the “amount remaining in brain” value ([2]; 240 min after 0.2 mg/kg i.p.) of the same compound?
Answer: negligible amount

Question: What about the “lowest concentration with significant cytotoxicity” value [3] of the same compound?
Answer: 40 µM

Question: And the “number of dendritic intersections” value ([4]; treated 2DIV to 6DIV)?
Answer: highly significant increase

Question: And the “number of dendritic intersections” value ([4]; with TrkA inhibitor, 2DIV to 6DIV)?
Answer: almost completely prevented the increased intersections

Question: What about the lethality ([5]; 100 mg/kg i.p., 6 mice, monitored for 5 days) of the same compound?
Answer: did not result in the death of any of the 6 mice

Question: And the lethality ([5]; 200 mg/kg, single mouse)?
Answer: survived without visible ill effects

Question: And the lethality ([5]; repeated i.p. injections for 5 days, 3 mice)?
Answer: None of the mice showed any lethal effect
